According to paper PMC6037046, “Structural insights into Plasmodium falciparum nicotinamide mononucleotide adenylyltransferase: oligomeric assembly” (Memórias do Instituto Oswaldo Cruz, 2018):

Assays:
6 x His-PfNMNAT = target: T1, 6 x His-PfNMNAT (Plasmodium falciparum, UniProt Q8IE38); test: RP-HPLC of NAD formed (direct assay); also ADH-coupled assay at […] nm; format: biochemical; details: 1.25 mM NMN, 1.25 mM ATP, 10 mM MgCl2, 25 mM HEPES/KOH pH 7.4, 37 C
T1 construct: gene PF3D7_1327600; full ORF in pET100/D-TOPO, N-terminal 6xHis tag kept, E. coli Codon Plus (DE3) RIL, ~28 kDa
T1 sequence (Q8IE38 1-204): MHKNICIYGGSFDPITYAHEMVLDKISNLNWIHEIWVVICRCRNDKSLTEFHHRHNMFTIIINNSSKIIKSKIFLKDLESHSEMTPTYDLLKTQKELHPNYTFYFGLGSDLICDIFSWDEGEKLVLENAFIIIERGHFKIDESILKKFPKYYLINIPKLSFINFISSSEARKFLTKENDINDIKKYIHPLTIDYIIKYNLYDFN

[1] = target: 6 x His-Plasmodium falciparum nicotinamide mononucleotide adenylyltransferase (PfNMNAT) recombinant protein (Plasmodium falciparum (FCB2 strain gDNA; ORF identified in strain 3D7)) (UniProt Q8IE38); test: native gel or EMSA; native PAGE of IMAC eluate (four gels of 6, 8, 10, 12 %T) with Ferguson plot (-Log Kr vs Log MW) against standard proteins

Row | Molecule | RP-HPLC of NAD formed (direct assay); also ADH-coupled assay at 340 nm (6 x His-PfNMNAT) | stoichiometry N [1]
1 | NC(=O)c1ccc[n+]([C@@H]2O[C@H](COP(=O)(O)O)[C@@H](O)[C@H]2O)c1 [NMN, nicotinamide mononucleotide] | direct enzymatic assays that measured NAD synthesis from NMN and ATP | 
2 | Nc1ncnc2c1ncn2[C@@H]1O[C@H](COP(=O)(O)OP(=O)(O)OP(=O)(O)O)[C@@H](O)[C@H]1O [ATP] | direct enzymatic assays that measured NAD synthesis from NMN and ATP | 
3 | 6 x His-Plasmodium falciparum nicotinamide mononucleotide adenylyltransferase (PfNMNAT) recombinant protein (from UniProt Q8IE38 1-204) (enzyme) |  | 2
